Source: publication PMC4595804, “A strategy to discover decoy chemokine ligands with an anti-inflammatory activity” (Scientific Reports, 2015)
Converted amounts (≈) assume the structure as drawn. Like-named read-outs stand apart in the source and are kept apart here. One block for each molecule: values may come before it.

Tests used:
[1] = biological target: T1, CCL17 (Homo sapiens, UniProt Q92583); test: TRIC-r calcium assay, neutraligand protocol: compound preincubated with CCL17, EGFP-CCR4+Gqi5+ HEK cells; format: cell-based; details: for IC50: 5 nM CCL17 preincubated 1 h with compound, 21 °C, read-out: IC50 for CCL17 neutralization (calcium assay); for inhibition at 2 µg/mL: 2 μg/ml compound preincubated 1 h with 5 nM CCL17, read-out: inhibition of CCL17-induced calcium responses (primary screen)
T1 construct: codes for the mature CCL17 or CCL22 with an N-terminal thioredoxin-hexahistidin (TRX- (His)6) tag; thioredoxin (TRX) (N, cleaved yes); (His)6 (N, cleaved yes); made in house; host or cells: E. coli BL21 (DE3)
T1 sequence (Q92583 24-94): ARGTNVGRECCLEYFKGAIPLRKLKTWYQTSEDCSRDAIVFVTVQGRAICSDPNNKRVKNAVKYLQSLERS
Experimental: (§1) EGFP-CCR4^+Gqi5^+HEKcells were loaded with fluorescent Ca^2+-indicator Indo-1 AM (5μM, Interchim) for 45 min at 37 °C. […] Cells (100,000 cells/well, 100μl) were seeded in black clear bottom 96-well plates (Greiner), and centrifuged at 250 × g for 5 min.
(§2) Two plates (96-well plates, Greiner) were prepared for the screen: one containing test compounds alone in order to determine their direct agonistic activity, and another one containing test compounds mixed with CCL17 or CCL22 at room temperature for 1 h (neutraligand protocol). The chemokines and test compounds were prepared at a 3× concentration, while digitonin was prepared at a 4× concentration. The CCR4 antagonist, C-021 served as control in the experiment. In the antagonist protocol, compounds were added to the cell plate (one compound per well) and incubated with cells for 30 min at room temperature, while the agonist (CCL17 or CCL22) was added to the ligand plate only.
(§3) Dye loaded cells were placed in the FlexStation 3 (Molecular Devices). […] For the primary screening, the ligands (50μl of chemokine mixed with DMSO or test compounds) were added to the cells at 40 s, followed by digitonin addition (50μl) at 100 s to the cells. Molecules were screened at a final concentration of 2μg/ml with 5 nM CCL17 or CCL22. […] The calcium response values (height of peak response over baseline) were determined. Hits were selected by comparing the response amplitude at the time of the chemokine addition ± test compound. The Z’ factor[29] was calculated according to the following equation: Z’ = 1-(3SD+ + 3SD−)/|Ave+ − Ave−|, where SD+ and Ave+ are respectively the standard deviation and the mean value of the positive controls (chemokine + DMSO), while SD− and Ave− are respectively the standard deviation and the mean value of the negative controls (HEPES-BSA (0.1%) mixed with DMSO, or cells mixed with C-021). Hit molecules were confirmed by performing concentration-response curves and their half maximal inhibitory concentration (IC50) values were calculated using the Kaleidagraph software.

[2] = biological target: T2, CCL22 (Homo sapiens, UniProt O00626); test: TRIC-r calcium assay, neutraligand protocol: compound preincubated with CCL22, EGFP-CCR4+Gqi5+ HEK cells; format: cell-based; details: for IC50: 5 nM CCL22 preincubated 1 h with compound, 21 °C, read-out: IC50 for CCL22 neutralization (calcium assay); for inhibition at 2 µg/mL: 2 μg/ml compound preincubated 1 h with 5 nM CCL22, read-out: inhibition of CCL22-induced calcium responses (primary screen)
T2 construct: codes for the mature CCL17 or CCL22 with an N-terminal thioredoxin-hexahistidin (TRX- (His)6) tag; thioredoxin (TRX) (N, cleaved yes); (His)6 (N, cleaved yes); made in house; host or cells: E. coli BL21 (DE3)
T2 sequence (O00626 25-93): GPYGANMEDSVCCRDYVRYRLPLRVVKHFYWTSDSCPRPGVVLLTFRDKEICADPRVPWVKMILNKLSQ
Experimental: as §1, §2, §3

[3] = tested on: HUT78 T cells; test: WST-1 metabolic activity assay; format: cell-based, human; details: 30 μM, 72 h
Excerpt: WST-1 metabolic activity assay
The colorimetric WST-1 cell metabolic assay (Ozyme) was used to assess the cytotoxic effect of chemokine neutraligands. This is a cell viability test based on the enzymatic cleavage by the mitochondrial succinate-tetrazolium reductase of a tetrazolium salt, WST-1 (4-[3-(4-Iodophenyl)-2-(4-nitrophenyl)-2H-5-tetrazolio]-1,3 benzene disulfonate), into a water- […]
soluble formazan dye which can be detected by absorbance at 420-480nm. HUT78 T cells (or HaCat cells) were seeded on 24-well plates (200,000 cells per well) and were incubated […]
concentration ≤1% on cells). The background control was reserved as one well containing the culture medium only. The plates were incubated for 72h at 37°C. Three days later, the medium containing the neutraligands was removed, and WST-1 reagent (1:10 final dilution) (Ozyme) was added to each well for a 2h incubation at 37°C as the manufacturer’s recommendation. The plates were shaken and absorbance was measured at 450nm (reference wavelength 690nm) against the background control, using a multiwell plate reader (EnVision, Perkin Elmer). Assays were performed as three independent replicates. […]
(Heidelberg, Germany) and was cultured in Dulbecco’s Modified Eagle Medium (DMEM) (Invitrogen) supplemented with 10% fetal bovine serum (FBS) (Gibco-BRL), 100U/ml penicillin (Invitrogen), 100µg/ml streptomycin (Invitrogen) and 2mM L-glutamine (Invitrogen) at 37°C and 5% CO 2. The cells received fresh medium every other day and were subcultured every 10 days. HaCat cells were seeded in a 24-well plate (ESSEN Bioscience) at a density of 200,000 cells per well, and were allowed to grow until confluence. A scratch wound along the cell monolayer was created using the Essen woundmakerTM. Cells were washed twice with PBS to remove detached cells, and were treated with serum-free culture medium in the absence or presence of 100ng/ml chemokine (CCL22 or CCL17) preincubated with DMSO or […]
The molecules were also tested alone […]
without the chemokine. […] One […]
µg/ml of mitomycin C (Sigma-Aldrich) was added throughout the experiment in order to block cell proliferation. Once treated, the cells were immediately placed into the IncuCyteTM live-cell imaging, and the cell migration onto the wounded area was examined for 72h. Phase-contrast images acquired for each sample were captured every 2h (objective lens x10), and […]

[4] = Solubility measurements (RP-HPLC); format: physicochemical; details: dissolved at 10 µM, room temperature; for solubility at 1 h: kinetic from dmso stock
Experimental: Standard stock solutions of compounds (10mM) were prepared in DMSO, and the molecules were dissolved at a concentration of 10µM in each of the three buffers. The samples were shaken for 1h at room temperature, and centrifuged at 15,000×g . The compounds concentration in the supernatant solutions was determined using RP-HPLC (Gilson) technique. The measurements were done with a UV detector set at 230nm. The measurements were carried out at room temperature using a C18 column ([…], 50×4.6mm, Phenomenex). The aqueous mobile phase contained 0.05% trifluoroacetic acid (solvent A, Sigma-Aldrich). The organic phase was HPLC grade acetonitrile (Sigma-Aldrich CHROMASOLV) (solvent B). The mobile phase flow rate was 2ml/min, and the following program was applied for the elution: 0–0.1min, 5% B; 0.1–2.6min, 5–95% B; 2.6–3.1min, 95% B; 3.1–3.3min, 95–5% B; and 3.3–6min, 5% B. To establish external calibration curves, increasing concentrations of each compound were prepared from standard stock solutions.
The chromatograms were recorded by injecting 20µl of each standard solution, and the calibration curves were plotted using peak areas. […]

[5] = biological target: T3, EGFP-CCR4 on HEK cells (human) (UniProt P51679)
T3 sequence: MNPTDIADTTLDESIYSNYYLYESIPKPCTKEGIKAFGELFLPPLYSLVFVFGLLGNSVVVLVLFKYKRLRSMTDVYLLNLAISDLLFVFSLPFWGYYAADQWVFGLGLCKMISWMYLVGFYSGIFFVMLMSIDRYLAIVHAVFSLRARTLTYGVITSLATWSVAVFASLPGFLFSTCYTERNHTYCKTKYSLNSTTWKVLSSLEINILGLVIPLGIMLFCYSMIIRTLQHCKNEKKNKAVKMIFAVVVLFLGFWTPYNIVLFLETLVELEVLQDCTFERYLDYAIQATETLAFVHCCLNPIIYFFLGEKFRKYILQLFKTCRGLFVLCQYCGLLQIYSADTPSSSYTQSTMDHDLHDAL

[6] = HEK293, compound 5 µM, read-out: Inhibition of CCL17 calcium responses (%)
[7] = HEK293, compound 5 µM, read-out: Inhibition of CCL22 calcium responses (%)
[8] = HEPES buffer, aqueous buffer, read-out: solubility in HEPES buffer
[9] = complete cell culture medium, plasma or biological fluid, read-out: solubility in the cell culture medium

Molecule: Cn1c(=O)c2c(ncn2C)n(C)c1=O [Caffeine, reference compound]
inhibition at 5 µM [1, 6]: 0%
Inhibition of CCL17 calcium responses (%) ([1]; compound 5 µM): no effect
inhibition at 5 µM [2, 7]: 0%

inhibition of HUT78 cell metabolic activity [3]: 81.3%
solubility at 1 h [4, 8]: > 10 µM
solubility at 1 h [4, 9]: > 10 µM
IC50 [2]: 10.6 ± 3.7 µM
inhibition at 2 µg/mL ([2]; HEK293): 44%
Molecule: COc1ccc([C@@H](C)C(=O)c2ccc(O)cc2O)cc1 [GPN025, (R)-1-(2,4-dihydroxyphenyl)-2-(4-methoxyphenyl)propan-1-one]

solubility at 1 h [4, 8]: 0.7 µM (≈ 0.238 µg/mL)
solubility in the cell culture medium ([4]; 1 h): not detected as a free molecule
IC50 [1]: 0.9 ± 0.1 µM
inhibition at 2 µg/mL ([1]; HEK293): 53%
Molecule: COc1cc(C2=N/C(=C\c3ccccc3)C(=O)O2)cc(OC)c1OC [GPN251, (Z)-4-benzylidene-2-(3,4,5-trimethoxyphenyl)oxazol-5(4H)-one]

inhibition of HUT78 cell metabolic activity [3]: 23.1%
solubility at 1 h [4, 8]: > 10 µM
solubility at 1 h [4, 9]: > 10 µM
IC50 [1]: 9.6 ± 0.9 µM
inhibition at 2 µg/mL ([1]; HEK293): 42%
IC50 [2]: 0.2 µM
inhibition at 2 µg/mL ([2]; HEK293): 100%
Molecule: CN1C(=O)N(C)C2=NNC=NC2(O)C1=O (centres unmarked) [GPN355, 4a-hydroxy-6,8-dimethyl-6,8-dihydropyrimido[5,4-e][1,2, 4]triazine-5,7(2H, 4aH)-dione]

Inhibition of CCL17 calcium responses (%) ([1]; compound 5 µM): 0.0%
Inhibition of CCL22 calcium responses (%) ([2]; compound 5 µM, 5 µM): 0.0%
Inhibition of CCL22 calcium responses (%) ([2]; compound 5 µM, listed as GPN001207, 5 µM): no inhibitory effect
Molecule: O=C(O)c1ccccc1O [GPN0001207]

inhibition at 5 µM [1, 6]: 0%
Inhibition of CCL17 calcium responses (%) ([1]; compound 5 µM): no effect
inhibition at 5 µM [2, 7]: 0%
Molecule: CC(C)Cn1c(=O)n(C)c(=O)c2[nH]cnc21 [IBMX, 3-isobutyl-1-methyl xanthine, reference compound]

Molecule: Cn1c(=O)c2[nH]cnc2n(C)c1=O [Theophylline, reference compound]
inhibition at 5 µM ([1]; HEK293, read-out: Inhibition of CCL17 calcium responses (%)): 0%
Inhibition of CCL17 calcium responses (%) ([1]; compound 5 µM): no effect
inhibition at 5 µM ([2]; HEK293, read-out: Inhibition of CCL22 calcium responses (%)): 0%

inhibition at 5 µM [1, 6]: 0%
inhibition at 5 µM [2, 7]: 0%
Molecule: CC(=O)Oc1ccccc1C(=O)O [aspirin, Acetylsalicylic acid, reference compound]

EC50 of calcium responses in EGFP-CCR4+ Gqi5+ HEK cells at 21 °C [5]: 0.0037 µM
Molecule: recombinant human CCL17 (from UniProt Q92583 24-94) (ligand)

EC50 of calcium responses in EGFP-CCR4+ Gqi5+ HEK cells at 21 °C [5]: 0.0029 µM
B1: recombinant human CCL22 (ligand)
chain: GPYGANMEDSVCCRDYVRYRLPLRVVKHFYWTSDSCPRPGVVLLTFRDKEICADPRVPWVKMILNKLSQ
